According to patent US20250319139A1, “METHODS FOR TREATING NEUROINFLAMMATION” (University of Virginia Patent Foundation, priority 2021, published 2025):

Columns and labels:
Type in all cases: in vivo, mouse
C3 = C3 in the hippocampus by ELISA
Description: (§1) IL-1β, IL-6, C3 and GDNF in the hippocampus were detected by using ELISA kits. For testing the IL-1β, IL-6 and GDNF, brain tissues were homogenized on ice in the RIPA buffer containing 25 mM Tris-HCl with pH 7.6, 150 mM NaCl, 1% sodium deoxycholate, 0.1% SDS and a protease inhibitor cocktail containing 10 mg/ml aproteinin, 5 mg/ml peptastin, 5 mg/ml leupetin and 1 mM phenylmethane sulfonylfluoride. For C3 testing, brain tissues were homogenized on ice in the PTR buffer (supplied in the kit). The supernatant was collected for ELISA detection after the homogenate was centrifuged at 13,000 g for 20 min at 4° C. and the protein concentration was determined by the BCA protein assay (Bio-Rad, Hemel Hempstead, Herts, UK). IL-1β, IL-6, C3 and GDNF in supernatant of brain were detected according to the manufacturer's instruction for ELISA, and the amount of them in each sample in the brain was normalized by its total protein content and was expressed as pg/mg protein.

IL-6 = IL-6 in the hippocampus by ELISA; conditions: young adult mice with exercise and surgery; intraperitoneal valeric acid
Description: as §1

C57BL/6J mice = assay: Barnes maze test, old mice; conditions: old mice with exercise and surgery; intraperitoneal valeric acid once a week vs normal saline
Source text: After one-week acclimation, old mice (18-month old male C57BL/6J mice) weighing 30-36 g were used in three studies. In the first experiment, old mice were randomly assigned to: 1) control group, 2) exercise group in which mice had 4-week exercise at 35-40% maximal capacity, 3) surgery group, and 4) Exe+Sur group in which mice had 4-week exercise at 35-40% maximal capacity before surgery. The animals were used for learning and memory tests starting 4 days after the surgery (n=12) or their brains were harvested for biochemical assays at 48 h after the surgery (n=10 or 12), for immunofluorescent staining at 48 h and 19 days after the surgery (n=6), and for Golgi staining at 19 days after the surgery (n=8). Blood and feces from mice of the 4 groups were harvested for SCFA measurement at 7 days after the surgery (n=7) and for 16S analyses at 3 and 7 days after the surgery (n=8) or at the end of 4-week exercise protocol or at the corresponding time in the first 2 groups (n=16). Mice for tissue harvesting were different cohorts that were used for learning and memory tests. In second experiment, old mice were randomly assigned to: 1) Trans-Old Control+Sur group, and 2) Trans-Old Exe+Sur group. […] Learning and memory were evaluated from 4 days after surgery (n=10). […] The latency to enter the target box during each trial was recorded by an ANY-Maze video tracking system (SD Instruments).

[1] = Cortical valeric acid quantification by HPLC; conditions: 9-week old mice, intraperitoneal valeric acid vs normal saline; 24 h after the last injection
Description: The amount of valeric acid in the cerebral cortex harvested 24 h after the last intraperitoneal injection of valeric acid was determined by a method similar to that reported before. Briefly, 0.1 g cerebral cortex was homogenized in 500 μl aqueous acetonitrile. Supernatant was extracted with 8 ml extraction buffer (hexane: diethyl ether=1:1) and centrifuged at 1800 g for 5 min. 7.5 ml supernatant was collected, mixed with 93 μl 20 mM KOH in methanol and dried at 40° C. under nitrogen gas. Dried residue was reconstituted in 50 μl 2.5% 18-Crown-6 in acetonitrile and was further derivatized with 9-chloromethylanthracene in acetonitrile with addition of tetramethylammonium hydroxide. Finally, 30 μl derivatization solution was loaded to Acclaim C18 column (3 μm, 4.6×100 mm, Thermo Scientific) and separated in Ultimate 3000 high performance liquid chromatograph (HPLC, Thermo Scientific) equipped with UV-visible detector. The peak of derivatized valeric acid was detected at a wavelength of 254 nm. 2-Ethylbutyric acid (2-EA) was added as an internal reference control. The peak area of valeric acid was measured as mAU*min and its peak area of each sample was normalized with that of 2-EA in the sample. Final results were presented as ratios of valeric acid group to NS group.

IL-1β = assay: ELISA of IL-1β in the serum; conditions: young mice, 100 mg/kg intraperitoneal 1 h before and 6 h after 120-min MCAO; 24 h after MCAO; vs saline
Description: Mice were weighed and anesthetized with isoflurane at 24 h after MCAO. Blood samples were obtained from the right heart after thoracotomy. Blood was centrifuged (13,000 g, 4° C.) after it had been placed at 4° C. for 2 h for the collection of serum. After the collection of blood, mice were perfused with 4° C. saline for brain tissue harvesting. The cerebral cortex (anteroposterior: -1.5 to 2.5 mm, mediolateral: 1.0 to 3.0 mm) was dissected out. All dissection procedures were performed on ice. IL-10, IL-17, IL-1β and IL-6 in the serum and brain were detected by using ELISA kits (catalog number: M1000B, M1700, MLB00C and D6050, R&D SYSTEM, Inc., Minneapolis, MN, USA) as we described before. The brain tissues were homogenized on ice in the RIPA buffer containing 25 mM Tris-HCl with pH 7.6, 150 mM NaCl, 1% sodium deoxycholate and 0.1% SDS (catalog number: 89901, Thermo Scientific, Rockford, IL, USA) and a protease inhibitor cocktail containing 10 mg/ml aproteinin, 5 mg/ml […], 5 mg/ml leupetin and 1 mM phenylmethane sulfonylfluoride (catalog number: SRE0055, Sigma-Aldrich, St. Louis, MO, USA). The supernatant was collected for ELISA detection after being centrifuged for 20 min (13,000 g, 4° C.) and the protein concentration was determined by the BCA method. Cytokines in the serum and supernatant of brain were detected according to the manufacturer's instruction. […]

## CCCCC(=O)O [valeric acid]
C3; 9-week old control mice, intraperitoneal valeric acid vs normal saline
  C3 in the brain (hippocampus): increased
C3; young adult mice with exercise and surgery, intraperitoneal valeric acid
  exercise-induced reduction of C3 in the hippocampus: this reduction was blocked
IL-6
  exercise-induced reduction of IL-6 in the hippocampus: this reduction was blocked
C57BL/6J mice
  performance in Barnes maze: impaired the performance
[1]
  amount of valeric acid in the brain (cerebral cortex): increased
IL-1β
  IL-1β in the blood: increased
